From ChEMBL document CHEMBL1129014, “Crystal receptor models in medicinal chemistry: Application to the generation of highly potent potassium channel openers” (Bioorg Med Chem Lett, 1996)

Organism: Cavia porcellus
Experiment: Inhibitory activity against potassium (15 mM) induced contractions of the guinea pig detrusor smooth muscle.
Assay type: functional

| SMILES | IC50 |
| --- | --- |
| C[C@]1(C(F)(F)F)CN(c2cccc[n+]2[O-])c2cc(S(=O)(=O)c3ccccc3)ccc2O1 | 0.68 µM |
| CC1(C)Oc2ccc(C#N)cc2[C@@H](N2CCCC2=O)[C@@H]1O [CROMAKALIM] | 0.6 µM |
| C[C@@]1(C(F)(F)F)CN(c2cccc[n+]2[O-])c2cc(S(=O)(=O)c3ccccc3)ccc2O1 | 0.28 µM |
| CC1(C(F)(F)F)CN(c2cccc[n+]2[O-])c2cc(S(=O)(=O)c3ccccc3)ccc2O1 (stereo not drawn) | 0.54 µM |
| CC1(C)CN(c2cccc[n+]2[O-])c2cc(S(=O)(=O)c3ccccc3)ccc2O1 | 4.1 µM |

Next, values leading:

| IC50 | SMILES |
| --- | --- |
| 0.007 µM | O=[N+]([O-])c1ccc2c(c1)N(c1cccc[n+]1[O-])CC(C(F)F)(C(F)F)O2 |
| 1 µM | C[C@](O)(C(=O)Nc1ccc(S(=O)(=O)c2ccccc2)cc1)C(F)(F)F |
| 0.5 µM | C[C@](O)(C(=O)Nc1ccc([N+](=O)[O-])cc1)C(F)(F)F |
